For 25 molecules, AC50 results are on record in patent US11970497B2, “Tricyclic AKR1C3 dependent KARS inhibitors” (Novartis AG, priority 2019, dated 2024).

For experiment [1], the system named is H460 (NRF2 pathway mutant cell line with high AKR1C3 expression). As to the kind of experiment: In vitro cell proliferation assay (CellTiter-Glo), H460. Type of experiment: cell-based. As to conditions: Homo sapiens, NCI-H460, 72 h; H460 cells, 3 days, CellTiter-Glo, top concentration 10 μM; read-out: H460 Qualified absolute AC50. From the text:
(§1) Cellular Proliferation Assay to Assess Compounds Activity in H460 (NRF2 Pathway Mutant Cell Line with High AKR1C3 Expression) and Hara (NRF2 Pathway Wild Type Cell Line with Low AKR1C3 Expression).
(§2) The cell lines A549 and H460 are NRF2 pathway mutant and specifically contain genetic alterations in KEAP1 (A549: G333C, H460: D236H) (Singh A. et al., 2006 PLoS Medicine 3(10) e420). In these cell lines the NRF2 pathway is constitutively active and these cells express high levels of NRF2 protein and NRF2 pathway target gene AKR1C3. […] They have low AKR1C3 expression.
(§3) In Vitro Cell Proliferation Assay
(§4) Day 1, for H460 800 cells/well or 40 μL of 2×10^4 cells/mL and for Hara 2000 cells/well or 40 μL of 5×10^4 cells/mL medium (RPMI-1640 supplemented with 10% fetal bovine serum and 1% penicillin/streptomycin) were seeded into 384-well tissue culture plates. Day 2, compounds were serially diluted 1:5 to generate 8 point dose response curves and added to cells for a final top concentration of 10 μM. DMSO (1%) control and MG132 (30 μM) controls are added in columns 23 and 24 respectively on each plate for positive and negative control. After incubation for 3 days at 37° C./5% CO2, 30 μl of CellTiter-Glo reagent (Promega) was added and the plates were incubated for 10 min on plate shaker. The amount of luminescence was determined using a Perkin Elmer Envision plate reader. CellTiter-Glo luminescence values of cells treated with DMSO and MG132 controls were used to normalize the data and calculate percentage activity and AC50s of compounds using the Helios Software suite.

For experiment [2], the system named is Hara (NRF2 pathway wild type cell line with low AKR1C3 expression). Description: In vitro cell proliferation assay (CellTiter-Glo), Hara. The class given is cell-based. As to conditions: 72 h; Hara cells, 3 days, CellTiter-Glo, top concentration 10 μM; read-out: HARA Qualified absolute AC50.
Description: as §1, §2, §3, §4
Background: Cellular ATP, detected with luciferase, serves as a proxy for viable cell number.

As a reminder, the AC50 is the concentration giving half of the maximal activity seen. On to `CCN1c2ccc(F)cc2C(=O)CC12CCN(C(=O)NCc1cc(N)c(F)cc1F)CC2` [Example 50, N-(5-amino-2,4-difluorobenzyl)-1′-ethyl-6′-fluoro-4′-oxo-3′,4′-dihydro-1′H-spiro[piperidine-4,2′-quinoline]-1-carboxamide], for which the concentration at half-maximal activity (AC50) in experiment [1] was 122 nM; in experiment [2], > 10000 nM.

`O=C1CC2(CCN(C(=O)NCc3ccc(OC(F)F)c(F)c3)CC2)Nc2c(F)cc(F)cc21` [Example 108, N-(4-(difluoromethoxy)-3-fluorobenzyl)-6′,8′-difluoro-4′-oxo-3′,4′-dihydro-1′H-spiro[piperidine-4,2′-quinoline]-1-carboxamide]: the AC50 in experiment [1] came out at 646 nM; in experiment [2] it was 3180 nM.

With `Cc1cc(CNC(=O)N2CCC3(CC2)CC(=O)c2cc(F)ccc2N3)ccc1N` [Example 119, N-(4-amino-3-methylbenzyl)-6′-fluoro-4′-oxo-3′,4′-dihydro-1′H-spiro[piperidine-4,2′-quinoline]-1-carboxamide], the AC50 in experiment [1] was 1020 nM; in experiment [2], > 10000 nM.

For `Nc1ccc(CNC(=O)N2CCC3(CC2)CC(=O)c2cc(F)ccc2N3)c(Cl)c1` [Example 111, N-(4-amino-2-chlorobenzyl)-6′-fluoro-4′-oxo-3′,4′-dihydro-1′H-spiro[piperidine-4,2′-quinoline]-1-carboxamide], the figures for the AC50 in experiment [1] and in experiment [2] were 733 nM and > 10000 nM, respectively.

For the molecule `COCCOc1cc(CNC(=O)N2CCC3(CC2)CC(=O)c2cc(F)ccc2N3C)ccc1F` [Example 21, 6′-fluoro-N-(4-fluoro-3-(2-methoxyethoxy)benzyl)-1′-methyl-4′-oxo-3′,4′-dihydro-1′H-spiro[piperidine-4,2′-quinoline]-1-carboxamide], the AC50 is 34 nM in experiment [1] and > 10000 nM in experiment [2].

Turning to `COC(=O)c1cc(CNC(=O)N2CCC3(CC2)CC(=O)c2cc(F)ccc2N3)ccc1F` [Example 61, methyl 2-fluoro-5-((6′-fluoro-4′-oxo-3′,4′-dihydro-1′H-spiro[piperidine-4,2′-quinoline]-1-carboxamido)methyl)benzoate], the figures for the half-maximal activity concentration (AC50) in experiment [1] and in experiment [2] were 205 nM and 3040 nM, respectively.

As to `CN1c2ccc(F)cc2C(=O)CC12CCN(C(=O)NCc1ccc(F)c([C@@H](N)C(F)(F)F)c1)CC2` [Example 149, (R)—N-(3-(1-amino-2,2,2-trifluoroethyl)-4-fluorobenzyl)-6′-fluoro-1′-methyl-4′-oxo-3′,4′-dihydro-1′H-spiro[piperidine-4,2′-quinoline]-1-carboxamide], the AC50 in experiment [1] was 5430 nM; in experiment [2], > 10000 nM.

Take `C/C=C/CN1c2ccc(F)cc2C(=O)CC12CCN(C(=O)NCc1ccc(F)cc1)CC2` [Example 85, (E)-1′-(but-2-en-1-yl)-6′-fluoro-N-(4-fluorobenzyl)-4′-oxo-3′,4′-dihydro-1′H-spiro[piperidine-4,2′-quinoline]-1-carboxamide]: the AC50 in experiment [1] was determined as 371 nM; in experiment [2], 9490 nM.

Consider `O=C1CC2(CCN(C(=O)NCc3cccc4c3OCO4)CC2)Nc2c(F)cc(F)cc21` [Example 53, N-(benzo[d][1,3]dioxol-4-ylmethyl)-6′,8′-difluoro-4′-oxo-3′,4′-dihydro-1′H-spiro[piperidine-4,2′-quinoline]-1-carboxamide], for which the AC50 in experiment [1] stood at 141 nM; in experiment [2], 2020 nM.

Take `COCCNc1cc(F)ccc1CNC(=O)N1CCC2(CC1)CC(=O)c1cc(F)ccc1N2C` [Example 20, 6′-fluoro-N-(4-fluoro-2-((2-methoxyethyl)amino)benzyl)-1′-methyl-4′-oxo-3′,4′-dihydro-1′H-spiro[piperidine-4,2′-quinoline]-1-carboxamide]: the values for the half-maximal activity concentration (AC50) in experiment [1] and in experiment [2] were 33 nM and > 10000 nM, respectively.

On to `Nc1ccc(CNC(=O)N2CCC3(CC2)CC(=O)c2cc(F)ccc2N3)cc1C(F)(F)F` [Example 112, N-(4-amino-3-(trifluoromethyl)benzyl)-6′-fluoro-4′-oxo-3′,4′-dihydro-1′H-spiro[piperidine-4,2′-quinoline]-1-carboxamide], for which the AC50 in experiment [1] is 783 nM; in experiment [2], > 10000 nM.

As to `O=C1CC2(CCN(C(=O)NCc3ccc(O)cc3)CC2)Nc2ccc(F)cc21` [Example 39, 6′-fluoro-N-(4-hydroxybenzyl)-4′-oxo-3′,4′-dihydro-1′H-spiro[piperidine-4,2′-quinoline]-1-carboxamide], the AC50 in experiment [1] was 82 nM; in experiment [2] it was > 10000 nM.

Turning to `Cn1cc(CNC(=O)N2CCC3(CC2)CC(=O)c2cc(F)ccc2N3)cn1` [Example 145, 6′-fluoro-N-((1-methyl-1H-pyrazol-4-yl)methyl)-4′-oxo-3′,4′-dihydro-1′H-spiro[piperidine-4,2′-quinoline]-1-carboxamide], the AC50 in experiment [1] came out at 3500 nM; in experiment [2] it was 6060 nM.

On to `NC(=O)c1cccc(CNC(=O)N2CCC3(CC2)CC(=O)c2cc(F)ccc2N3)c1` [Example 69, N-(3-carbamoylbenzyl)-6′-fluoro-4′-oxo-3′,4′-dihydro-1′H-spiro[piperidine-4,2′-quinoline]-1-carboxamide], for which the AC50 in experiment [1] is 233 nM; in experiment [2], > 10000 nM.

For `CC(O)c1cc(CNC(=O)N2CCC3(CC2)CC(=O)c2cc(F)ccc2N3C)ccc1F` (stereo not shown) [Example 92, 6′-fluoro-N-(4-fluoro-3-(1-hydroxyethyl)benzyl)-1′-methyl-4′-oxo-3′,4′-dihydro-1′H-spiro[piperidine-4,2′-quinoline]-1-carboxamide], the AC50 in experiment [1] is 467 nM; in experiment [2], > 10000 nM.

For the molecule `O=C1CC2(CCN(C(=O)NCc3cc[nH]n3)CC2)Nc2ccc(F)cc21` [Example 47, N-((1H-pyrazol-3-yl)methyl)-6′-fluoro-4′-oxo-3′,4′-dihydro-1′H-spiro[piperidine-4,2′-quinoline]-1-carboxamide], the concentration at half-maximal activity (AC50) is 106 nM in experiment [1] and > 10000 nM in experiment [2].

On to `O=C1CC2(CCN(C(=O)NCc3cc(OCCO)c(F)cc3F)CC2)Nc2ccc(F)cc21` [Example 71, N-(2,4-difluoro-5-(2-hydroxyethoxy)benzyl)-6′-fluoro-4′-oxo-3′,4′-dihydro-1′H-spiro[piperidine-4,2′-quinoline]-1-carboxamide], for which the AC50 was 265 nM in experiment [1] and > 10000 nM in experiment [2].

As to `NC(=O)c1cc(CNC(=O)N2CCC3(CC2)CC(=O)c2cc(F)ccc2N3)ccc1F` [Example 24, N-(3-carbamoyl-4-fluorobenzyl)-6′-fluoro-4′-oxo-3′,4′-dihydro-1′H-spiro[piperidine-4,2′-quinoline]-1-carboxamide], the AC50 in experiment [1] was found to be 46 nM; in experiment [2], 5940 nM.

On to `O=C1CC2(CCN(C(=O)NCc3ccc(F)cc3Cl)CC2)Nc2ccc(F)cc21` [Example 68, N-(2-chloro-4-fluorobenzyl)-6′-fluoro-4′-oxo-3′,4′-dihydro-1′H-spiro[piperidine-4,2′-quinoline]-1-carboxamide], for which the AC50 in experiment [1] worked out at 226 nM; in experiment [2], 9140 nM.

Consider `CCN1c2ccc(F)cc2C(=O)CC12CCN(C(=O)NCc1ccc(F)c(NCCO)c1)CC2` [Example 25, 1′-ethyl-6′-fluoro-N-(4-fluoro-3-((2-hydroxyethyl)amino)benzyl)-4′-oxo-3′,4′-dihydro-1′H-spiro[piperidine-4,2′-quinoline]-1-carboxamide], for which the results for the AC50 in experiment [1] and in experiment [2] were 47 nM and 1660 nM, respectively.

Regarding `NC(=O)c1c(F)ccc(CNC(=O)N2CCC3(CC2)CC(=O)c2cc(F)ccc2N3)c1F` [Example 109, N-(3-carbamoyl-2,4-difluorobenzyl)-6′-fluoro-4′-oxo-3′,4′-dihydro-1′H-spiro[piperidine-4,2′-quinoline]-1-carboxamide], the figures for the AC50 in experiment [1] and in experiment [2] were 690 nM and > 10000 nM, respectively.

In the case of `COCCNC(=O)c1cc(CNC(=O)N2CCC3(CC2)CC(=O)c2cc(F)ccc2N3C)ccc1F` [Example 58, 6′-fluoro-N-(4-fluoro-3-((2-methoxyethyl)carbamoyl)benzyl)-1′-methyl-4′-oxo-3′,4′-dihydro-1′H-spiro[piperidine-4,2′-quinoline]-1-carboxamide], the concentration at half-maximal activity (AC50) in experiment [1] is 181 nM.

Take `Cc1cc(CNC(=O)N2CCC3(CC2)CC(=O)c2cc(F)ccc2N3)c(C)o1` [Example 110, N-((2,5-dimethylfuran-3-yl)methyl)-6′-fluoro-4′-oxo-3′,4′-dihydro-1′H-spiro[piperidine-4,2′-quinoline]-1-carboxamide]: the AC50 in experiment [1] worked out at 700 nM.

As for `Cc1occc1CNC(=O)N1CCC2(CC1)C[C@@H](O)c1cc(F)ccc1N2` (single isomer, unassigned) [Example 169], in experiment [1], the AC50 turned out to be 8 nM.

Take `CN1CCN(C(=O)C(C)(C)CNc2cc(CNC(=O)N3CCC4(CC3)CC(=O)c3cc(F)ccc3N4C)ccc2F)CC1` [Example 44, N-(3-((2,2-dimethyl-3-(4-methylpiperazin-1-yl)-3-oxopropyl)amino)-4-fluorobenzyl)-6′-fluoro-1′-methyl-4′-oxo-3′,4′-dihydro-1′H-spiro[piperidine-4,2′-quinoline]-1-carboxamide]: the AC50 in experiment [1] amounted to 99 nM.
